Source: patent US6486169B1, “Botanical drug for treatment and prevention of alzhimer's disease” (priority 2002, dated 2002)
Marks after values point to notes of the source that are not given here.

Experiments:
LTP in CAI area of brain = assay: Long-term potentiation (LTP) by electro-physiological method; assay type: in vivo; conditions: control 8
Excerpt: The long-term potentiation (LTP) is model of information stored in brain. LTP is as an index determined by electro-physiological method and express as mv in CAI area of brain.

[1] = system: male mice of PBA/2 strains; assay: Effect on memory (2): anisodine-caused mistake of memory; assay type: in vivo; conditions: anisodine model, dose 50 mg/kg each (50 + 50 for combination), control 38.5 ± 4.0, normal 5.0 ± 1.2
Method: Four months of male mice of PBA/2 strains used in experiments. […] The control group was injected saline. Complex learning measures and memory were determined in experiments. (Reference see “Mammalian Models for Research on Aging”, pp 23-180, edited by Committee on Animal Models for Research on Aging, Institute of Laboratory Animal resources, division of Biological Sciences and Assembly of Life Science, published by National Academy Press, Washington, D.C., 1981). Normal animals injected by saline. Control animals injected by anisodine. Anisodine caused mistake of memory.

[2] = system: Ca++ concentration of brain cells; assay: Ca++ concentration of brain cell; assay type: in vivo; conditions: control 112
Method: Method of animal is as same as example 7.
Ca^++ concentration of brain cell was determined.

brain protein synthesis = assay: Brain protein synthesis, (14C) leucine incorporation in cell free brain homogenate; assay type: in vivo, mice of DBA/2 strains; conditions: mice, injected 1.0 mg/kg each, control 901
Method: It is known that an age-dependent decline in animal brain protein synthesis. The decreased incorporation of amino acids into proteins can be observed in vitro including brain slices, brain cell suspensions, cell free brain homogenate preparations from older animals. Four months of male mice of DBA/2 strains used in experiment. Mice of HUE group injected HUE and dose was 0.1, 0.5 and 1.0 mg/kg. Mice of control group were injected by same value of saline. Mice killed and brain was rapidly removed. Cell free brain homogenate preparations used in experiment. (^14C) leucine mixed with homogenate suspension was incubated at 37° C. Homogenate precipitated with 10% trichloroacetic acid (TCA) and filtered onto glass fiber filters. The filters were washed with phosphate-buffered saline and placed in scintillation vials 10 ml of scintillation solution (which containing […]) were added to digested solution and determined at LSC and radioactive emissions were counted.

[3] = system: male mice of PBA/2 strains; assay: Effect on memory (1): complex learning measures and memory in mice; assay type: in vivo; conditions: injected, normal = 100
Method: Four months of male mice of PBA/2 strains used in experiments. […] Mice of HUE group were injected 0.1, 0.5 and 1.0 mg/kg of HUE. The control group was injected saline. Complex learning measures and memory were determined in experiments. (Reference see “Mammalian Models for Research on Aging”, pp 23-180, edited by Committee on Animal Models for Research on Aging, Institute of Laboratory Animal resources, division of Biological Sciences and Assembly of Life Science, published by National Academy Press, Washington, D.C., 1981). Normal animals injected by saline. Control animals injected by anisodine. Anisodine caused mistake of memory.

[4] = system: N2a neuroblastoma cells exposed to Aβ; assay: Viability of N2a neuroblastoma cells exposed to Alzheimer amyloid β protein; assay type: cell-based; conditions: 50 μm Aβ for 24 hours, HUE 50 μg/ml, βA alone 35.4, normal 97.5
Excerpt: In AD, the protein forms aggregates of insoluble β-pleated sheets of fibrillar βA protein(amyloid). The conformational change from soluble to fibrillar forms seems to be a spontaneous event. The fibrillization is increased with higher concentrations of βA and with the longer forms of βA, so any production of larger amounts of βA than normal or production of the larger, less soluble forms of βA will tend to increase plaque formation. Once the βA plaque has started to form, other molecules can interact with the nascent plaque to produce eventually the mature plaque with its associated areas of cell death. In present study, effect of HUE on neuroblastoma cells exposed to the Alzheimer amyloid β protein and Aβ was examined.
N2a neuroblastoma cells were cultured and then exposed to 50 μm Aβ for 24 hours.
Concentration of HUE was 50 μg/ml. Cells viability determined by fluorescent staining, iodide and the trypan blue exclusion methods were used in experiments.

DA in brain = assay: Concentration of dopamine (DA) in brain; assay type: in vivo; conditions: 10 mg/kg each; control 880 ± 97
Excerpt: The effect of CLE and HUE on concentration of dopanmine (DA) was examined. The method of animal is as same as mentioned previously.

[5] = system: RNA synthesis of brain cells; assay: RNA synthesis of brain cells, 3H-U incorporation in cell free brain homogenate; assay type: in vivo, mice of DBA/2 strains; conditions: mice, injected 1.0 mg/kg, control (saline) 1280
Method: It is known that decline RNA content in cortical and cerebral cortex of AD. RNA of brain cell was determined.
Four months of male mice of DBA/2 strains used in experiment. Mice of treatment group injected HUE or CLE (dose was 1.0 mg/kg). Mice of control group were injected by same value of saline. Mice killed and brain was rapidly removed. Cell free brain homogenate preparations used in experiment. 0.5 μC ^3H-U (20 μCi/mM) was mixed with 1 ml homogenate suspension was incubated at 37° C. Homogenate precipitated with 10% trichloroacetic acid (TCA) and filtered onto glass fiber filters. The filters were washed with phosphate-buffered saline and placed in scintillation vials 10 ml of scintillation solution (which containing […]) were added to digested solution and determined at LSC and radioactive emissions were counted.

[6] = system: superoxide anion of pig brain; assay: Postischemic SOD-inhibitable NBT reduction (superoxide anion generation) in pig brain; assay type: in vivo; conditions: piglets, ischemia-reperfusion, pretreated with HUE 0.5 mg/kg; ischemia-reperfusion control 12.9 ± 2.0, normal 2.8 ± 0.3
Method: Reperfusion injury after prolonged ischemia appeared to oxygen species of cerebral. The superoxide dismutase (SOD)-inhibitable nitroblue tetrazolium (NBT) reduction was determined as an index of superoxide anion generation in pig brain. In present study, effect of HUE on postischemic SOD-inhibitable NBT reduction was determined.
Piglets (1 kg) of either sex were anesthetized Anesthesia was maintained with α-chloralose. A catheter was inserted into a femoral artery to record blood pressure and to sample for blood gases and pH. Another catheter was placed in a femoral vein for injection of drugs. The trachea was cannulated, and the piglets were ventilated with room air. Body temperature was maintained at 37-38° C. with a water-circulating heating pad. Total cerebral ischemia was performed.
SOD-inhibitable NBT reduction was determined as an index of superoxide anion production. In control group, the piglets treated with vehicle (CSF). In treatment group, the piglets pretreated with HUE (0.5 mg/kg). SOD-inhibitable NBT reduction was determined for 20 minutes. For analysis, the slices were minced and homogenized in 1 N NaOH and 0.1% sodium dodecyl sulfate, the mixture centrifuged at 20,000 g for 20 min, the resulting supernatant discarded, and the pellet resuspended in 3 ml pyridine. […] The concentration of formazan in the resulting solution was determined spectrophotometrically at 515 nm.

**Q.** Which “LTP (mv in CAI)” value (LTP in CAI area of brain) does the source give for `C/C=C1\[C@H]2C=C(C)C[C@]1(N)c1ccc(=O)[nH]c1C2` [HUE, Huperzine] here?
**A.** 10 mv

**Q.** And the Number of mistake [1]?
**A.** *10.8 ± 1.5

**Q.** What about the “Ca^++” value [2] of the same molecule?
**A.** 160 µmol/L

**Q.** What about the “CPM ((14C) leucine into protein)” value (brain protein synthesis) of the same molecule?
**A.** 2640 CPM

**Q.** What about the “Increasing memory (%)” value ([3]; 0.1 mg/kg) of the same molecule?
**A.** 150%

**Q.** What about the “Increasing memory (%)” value ([3]; 0.5 mg/kg) of the same molecule?
**A.** 210%

**Q.** What about the “Increasing memory (%)” value ([3]; 1.0 mg/kg) of the same molecule?
**A.** 350%

**Q.** What about the “Cells viability (%)” value [4] of the same molecule?
**A.** 80.2* %

**Q.** And the “DA (ng/g brain)” value (DA in brain)?
**A.** 1280 ± 120 ng/g brain

**Q.** And the “CPM (3H-U into RNA)” value [5]?
**A.** 1860 CPM

**Q.** What about the “Pmol NBT/mm^2, 20 min (SOD-inhibitable NBT reduction)” value [6] of the same molecule?
**A.** 4.2 ± 0.5 Pmol NBT/mm^2, 20 min

**Q.** Clausenamide [CLE] was tested. Which “LTP (mv in CAI)” value (LTP in CAI area of brain) did it give?
**A.** 13 mv

**Q.** And the Number of mistake [1]?
**A.** *11.2 ± 2.0

**Q.** What about the “Ca^++” value [2] of the same molecule?
**A.** 220 µmol/L

**Q.** And the “CPM ((14C) leucine into protein)” value (brain protein synthesis)?
**A.** 1580 CPM

**Q.** What about the “Cells viability (%)” value [4] of the same molecule?
**A.** 70.5* %

**Q.** And the “DA (ng/g brain)” value (DA in brain)?
**A.** 1560 ± 102 ng/g brain

**Q.** And the “CPM (3H-U into RNA)” value [5]?
**A.** 1540 CPM
